According to paper PMC8398714, “Synthesis and Evaluation of Biological Activities of Bis(spiropyrazolone)cyclopropanes: A Potential Application against Leishmaniasis” (Molecules, 2021):
“Also recorded” adds a separate entry of the source.

Legend:
[1] = tested on: Leishmania mexicana cells; test: Comet assay of Leishmania mexicana cells; assay type: cell-based; design: Comet tail length, mean (vary) / Comet tail length, median (Q50): unit not given here; details: L. mexicana, 24 h at MIC; for Genotoxic effect (DNA breaks) in comet assay: in words; for Comet tail length, mean (vary) / Comet tail length, median (Q50): MMS 0.011%, Kruskal-Wallis $means
Protocol: We quantified DNA breaks by a comet assay to determine if these compounds are genotoxic. Here, L. mexicana cells were exposed for 24 h to MIC concentrations previously determined (see Materials and Methods Section) for each compound. Figure 1 represents the measurements obtained for tail length. All compounds generated DNA breaks expect 4s. […] Samples with DMSO and MMS (0.011%) were included as controls. Some representative pictures are shown at Figure S4. The effect of 4p could not be determined because the cells appear to be very damaged. The data was subjected via a Kruskal–Wallis one-way ANOVA (Statistical Analyses S2). […] These observations support a mechanism of action through the generation of DNA damage.
For leishmania, a method previously described for yeast was adapted. Briefly, after incubating the cells in presence of the compounds for 24 h, cells were collected and washed with buffer S (1 M sorbitol, 25 mM KH2PO4 in ultrapure water and adjust to pH 6.5 with NaOH). The pellet was resuspended in 400 µL of 1.5% LMA and 40 µL was spread (second layer) onto previously agarose-coated slides (first layer).
Slides were immersed in cold lysis buffer (30 mM NaOH, 1 M NaCl, 0.05 % (w/v) lauroylsarcosine, 50 mM EDTA, and 10 mM Tris–HCl, pH 10) for 25 min and then in cold electrophoresis alkaline buffer (30 mM NaOH, 10 mM EDTA, and 10 mM Tris–HCl, pH 10). They were then subjected to electrophoresis at 26V and 300 mA. Slides were immersed in neutralization buffer (10 mM Tris–HCl, pH 7.4; prepared in advance and stored at 4 °C) for 10 min at room temperature. The cells were then treated with proteinase K (20 min, 37 °C in humid chamber), followed by a new neutralization step. To dehydrate the slides, they were immersed in EtOH 90% and EtOH absolute for 10 min each. Finally, the slides were stained with Sybr Gold 1X.
The DNA migration was analyzed using a LEICA microscope with fluorescence (40×) by scoring 100 cells per slide in duplicate. The tail moment parameter was then analyzed by the Comet Score software.

CHO-K1 cells = assay type: cell-based, hamster
Protocol: Cells were mixed with 150 μL low-melting-point agarose 1% (LMP, Promega, Madison, WI, USA) and added to microscope slides previously prepared with normal-melting-point agarose 1% (NMP, Invitrogen, Carlsbad, CA, USA). A third LMP agarose layer (150 µL) was added. The slides were immersed in a cooled lysing solution (pH 10) with 10% DMSO, 1% Triton X-100 (Sigma Aldrich, Saint Louis, MO, USA), 2.5 M NaCl (Loba Chemie, Mumbai, India), 100 mM EDTA and 10 mM Tris (Invitrogen, Carlsbad, CA, USA) for 12 h at 4 °C. All steps after lysis were performed under darkness or yellow light to prevent additional DNA damage. The slides were immersed for 20 min in an electrophoresis buffer solution (pH 13) with NaOH 300 mM (Fisher Scientific, Waltham, MA, USA) and EDTA 1 mM (Invitrogen, Carlsbad, CA, USA) to allow for DNA unwinding. Electrophoresis was later performed at 25 V and 300 mA for 20 min. Slides were then sprayed with a neutralization buffer (pH 7.5) 0.4 M Tris (Sigma Aldrich, Saint Louis, MO, USA). Ethidium bromide (60 µL) was added to each slide, and a cover glass was placed on the gel. The DNA migration was analyzed using a ZEISS-Axioskop 2 plus microscope with fluorescence (40×) by scoring 100 cells per slide in duplicate. After that, the tail moment parameter was analyzed by a Comet Assay IV software (Perceptive Instruments Ltd., Bury St Edmunds, Suffolk, UK).

A-549 = test: MTS cell viability assay on A-549 cells; assay type: cell-based; details: Homo sapiens, A549; 100 µM, 48 h; Dox 1 µM; mean ± SEM; NA = no activity; read-out: Percentage (%) of inhibition, A-549
Protocol: (§1) Five tumor human cancer cell lines—cerebral astrocytoma (D-384), grade IV prostatic adenocarcinoma (PC-3), mammary adenocarcinoma (MCF-7), human colon carcinoma (RKO) and lung carcinoma (A-549)—along with one immortalized hamster cell line (CHO K-1) were used. The cells PC-3, MCF-7 and RKO were cultured in RPMI-1640, D-384 on DMEM and CHO K-1 on HAM F-12 medium supplemented with 10% fetal bovine serum (FBS, Invitrogen, Karlsruhe, Germany), 1% antibiotic-antimitotic solution (100 units/mL penicillin G, 100 µg/mL streptomycin, and 0.25 µg/mL amphotericin B, Gibco, Grand Island, NY, USA), and 1% L-glutamine (2 mM, Gibco). The cells were incubated at 37 °C in a 5% CO2 atmosphere. The viable cells were counted using the trypan blue exclusion method in a hemocytometer.
(§2) The MTS (5-[3-(carboxymethoxy)phenyl]-3-(4,5-dimethyl-2-thiazolyl)-2-(4-sulfo- phenyl)-2H-tetrazolium inner salt) cell viability assay was used to assess the inhibitory effects of the extracts on the survival of human cancer cell lines. A total of 3–5 × 10^3 cells/well were seeded into 96-well plates and were allowed to adhere for 24 h. […] Each concentration/assay was performed three times. Dimethyl sulfoxide (DMSO) was used as a negative control at a final concentration of 0.1% v/v, and 1 µM Doxorubicin was used as a positive control. The cells were incubated with the treatments for 48 h, after which 20 µL MTS (5 mg/mL, Aqueous One Solution Reagent, Gibco) was added and further incubated for 4 h at 37 °C. The absorbance was measured at 570 nm. The data obtained with cells treated with DMSO were defined to represent 100% viability.

CHO-K1 = test: MTS cell viability assay on immortalized CHO-K1 cells; assay type: cell-based, hamster; details: 48 h, Dox 1 µM, mean ± SEM, NA = no activity, read-out: Percentage (%) of inhibition, CHO-K1
Protocol: as §1, §2

RKO = test: MTS cell viability assay on RKO cells; assay type: cell-based; details: Homo sapiens, 48 h; for inhibition at 100 µM: Dox 1 µM, mean ± SEM, NA = no activity, read-out: Percentage (%) of inhibition, RKO; for IC50: 15-150 µM, mean ± SEM of triplicates
Protocol: as §1, §2

Row | Structure (SMILES) | Genotoxic effect (DNA breaks) in comet assay [1] | Comet tail length, mean (vary) [1] | Comet tail length, median (Q50) [1] | Genotoxic effect in comet assay versus DMSO control (CHO-K1 cells) | inhibition at 100 µM (A-549) | inhibition at 100 µM (CHO-K1) | inhibition at 100 µM (RKO) | IC50 (RKO)
1 | COC(=O)c1ccc(C2[C@@]3(C(=O)N(c4ccccc4)N=C3C)[C@]23C(=O)N(c2ccccc2)N=C3C)cc1 (relative stereo) [4q, (5R*,6R*)-Methyl-4[4,10-dimethyl-2,8-diphenyl-2,3,8,9-tetraazadispiro[4.0.4.1]undeca-3,9-diene-1,7-dione-11-yl]benzoate] | highest genotoxic activity; also recorded: strongest effects | 172025000 | 177500000 | did not show differences with respect to the control of DMSO | 13 ± 1.99% | 2.29 ± 2.6% | 62.9 ± 1.53% | 102 ± 7.8 µM
2 | CSc1ccc(C2[C@]3(C(=O)N(c4ccccc4)N=C3C)[C@@]23C(=O)N(c2ccccc2)N=C3C)cc1 (relative stereo) [4u, (5R*,6R*)-11-(4-Thiomethylphenyl)-4,10-dimethyl-2,8-diphenyl-2,3,8,9-tetraazadispiro[4.0.4.1]undeca-3,9-diene-1,7-dione] | highest genotoxic activity; also recorded: strongest effects | 179560000 | 177500000 | did not show differences with respect to the control of DMSO | 3.64 ± 1.81% | 5.76 ± 3.65% | 41 ± 1.49% | –
3 | CC1=NN(c2ccccc2)C(=O)[C@@]12C(c1ccccc1[N+](=O)[O-])[C@@]21C(=O)N(c2ccccc2)N=C1C (relative stereo) [4c, (5R*,6R*)-11-(2-Nitrophenyl)-4,10-dimethyl-2,8-diphenyl-2,3,8,9-tetraazadispiro[4.0.4.1]undeca-3,9-diene-1,7-dione] | – | 70710000 | 72500000 | – | 6.1 ± 0.86% | 2.62 ± 2.2% | 37.3 ± 1.22% | –
4 | COc1ccccc1C1[C@@]2(C(=O)N(c3ccccc3)N=C2C)[C@]12C(=O)N(c1ccccc1)N=C2C (relative stereo) [4f, (5R*,6R*)-11-(2-Methoxyphenyl)-4,10-dimethyl-2,8-diphenyl-2,3,8,9-tetraazadispiro[4.0.4.1]undeca-3,9-diene-1,7-dione] | – | 75100000 | 80500000 | – | 10.4 ± 3.28% | 2.79 ± 1.49% | 28.7 ± 0.29% | –
5 | CC1=NN(c2ccccc2)C(=O)[C@@]12C(c1cccc([N+](=O)[O-])c1)[C@@]21C(=O)N(c2ccccc2)N=C1C (relative stereo) [4d, (5R*,6R*)-11-(3-Nitrophenyl)-4,10-dimethyl-2,8-diphenyl-2,3,8,9-tetraazadispiro[4.0.4.1]undeca-3,9-diene-1,7-dione] | – | 75120000 | 83500000 | most significant | 13.6 ± 0.74% | 4.4 ± 0.72% | 68.9 ± 1.72% | 94 ± 4.09 µM
6 | COc1ccc(C2[C@@]3(C(=O)N(c4ccccc4)N=C3C)[C@]23C(=O)N(c2ccccc2)N=C3C)cc1 (relative stereo) [4e, (5R*,6R*)-11-(4-Methoxyphenyl)-4,10-dimethyl-2,8-diphenyl-2,3,8,9-tetraazadispiro[4.0.4.1]undeca-3,9-diene-1,7-dione] | – | 65120000 | 64500000 | – | 7.97 ± 1.46% | – | 36.8 ± 1.55% | –
7 | CC1=NN(c2ccccc2)C(=O)[C@@]12C(c1ccccc1)[C@@]21C(=O)N(c2ccccc2)N=C1C (relative stereo) [4b, (5R*,6R*)-4,10-Dimethyl-2,8,11-triphenyl-2,3,8,9-tetraazadispiro[4.0.4.1]undeca-3,9-diene-1,7-dione] | – | 50400000 | 55000000 | did not show differences with respect to the control of DMSO | – | 5.76 ± 3.08% | 21.7 ± 2.37% | –
8 | CC1=NN(c2ccccc2)C(=O)[C@@]12C(c1ccc(OC(F)(F)F)cc1)[C@@]21C(=O)N(c2ccccc2)N=C1C (relative stereo) [4s, (5R*,6R*)-11-(4-Trifluoromethoxyphenyl)-4,10-dimethyl-2,8-diphenyl-2,3,8,9-tetraazadispiro[4.0.4.1]undeca-3,9-diene-1,7-dione] | weakest | 39720000 | 39500000 | – | 24.4 ± 1.36% | – | 70.2% | 63.8 ± 6.48 µM
9 | CC1=NN(c2ccccc2)C(=O)[C@@]12C(c1ccc(C(F)(F)F)cc1)[C@@]21C(=O)N(c2ccccc2)N=C1C (relative stereo) [4r, (5R*,6R*)-11-(4-Trifluoromethylphenyl)-4,10-dimethyl-2,8-diphenyl-2,3,8,9-tetraazadispiro[4.0.4.1]undeca-3,9-diene-1,7-dione] | – | 96310000 | 98500000 | – | 28.6 ± 3.71% | 4.74 ± 3.04% | 64.71 ± 0.52% | 60.7 ± 9.95 µM
10 | CC1=NN(c2ccccc2)C(=O)[C@@]12C(c1ccc([N+](=O)[O-])cc1)[C@@]21C(=O)N(c2ccccc2)N=C1C (relative stereo) [4k, (5R*,6R*)-11-(4-Nitrophenyl)-4,10-dimethyl-2,8-diphenyl-2,3,8,9-tetraazadispiro[4.0.4.1]undeca-3,9-diene-1,7-dione] | biggest genotoxic effects; also recorded: strongest effects | 142780000 | 128000000 | most significant | 26.7 ± 3.03% | – | 67.6 ± 0.77% | 84 ± 9.46 µM
